{"source": "DBAASP", "test_in_all_cases": "≥ marks a high value that may be exact or a test limit, other limits are often not marked, values filed in µg/mL are converted to µM", "key": {"Enterococcus faecalis": {"tested_on": "Enterococcus faecalis"}, "Staphylococcus aureus": {"tested_on": "Staphylococcus aureus"}, "[1]": {"tested_on": "Pseudomonas aeruginosa PAK"}, "Escherichia coli W3110": {"tested_on": "Escherichia coli W3110"}, "[2]": {"tested_on": "Streptococcus sobrinus ATCC 33478"}, "[3]": {"tested_on": "Streptococcus mutans UA159"}, "[4]": {"tested_on": "Streptococcus sanguinis NY101"}, "[5]": {"tested_on": "Escherichia coli ATCC 25922"}, "[6]": {"tested_on": "Staphylococcus aureus ATCC 29213"}, "[7]": {"tested_on": "Staphylococcus aureus ATCC 43300"}, "[8]": {"tested_on": "Bacillus cereus ATCC 11778"}, "[9]": {"tested_on": "Listeria monocytogenes ATCC BAA-751"}, "[10]": {"tested_on": "Salmonella enterica subsp. enterica serovar Typhimurium ATCC 14028"}, "[11]": {"tested_on": "Pseudomonas aeruginosa ATCC 9027"}, "[12]": {"tested_on": "Staphylococcus aureus ATCC 25923"}, "[13]": {"tested_on": "Cutibacterium acnes ATCC 15725"}, "[14]": {"tested_on": "Cutibacterium acnes ATCC 33257"}, "[15]": {"tested_on": "Candida albicans ATCC 90028"}, "[16]": {"tested_on": "Cutibacterium acnes ATCC 50247"}, "[17]": {"tested_on": "Cutibacterium acnes ATCC 32548"}, "[18]": {"tested_on": "Cutibacterium acnes ATCC 18380"}, "[19]": {"tested_on": "Cutibacterium acnes ATCC 31766"}, "[20]": {"tested_on": "Escherichia coli ATCC 25726"}, "Acinetobacter baumannii": {"tested_on": "Acinetobacter baumannii"}, "[21]": {"tested_on": "Cutibacterium acnes ATCC 11828"}, "[22]": {"tested_on": "Cutibacterium acnes ATCC 29903"}, "Enterococcus faecium": {"tested_on": "Enterococcus faecium"}, "[23]": {"tested_on": "Staphylococcus haemolyticus"}, "Escherichia coli ML-35": {"tested_on": "Escherichia coli ML-35"}, "Citrobacter freundii": {"tested_on": "Citrobacter freundii"}, "[24]": {"tested_on": "Stenotrophomonas maltophilia"}, "[25]": {"tested_on": "Staphylococcus epidermidis LT1324"}, "Escherichia coli": {"tested_on": "Escherichia coli"}, "Bacillus megaterium Bm11": {"tested_on": "Bacillus megaterium Bm11"}, "[26]": {"tested_on": "Pseudomonas aeruginosa ATCC 27853"}, "[27]": {"tested_on": "Staphylococcus aureus 710A"}, "Candida albicans": {"tested_on": "Candida albicans"}, "[28]": {"tested_on": "Staphylococcus aureus LT1334"}, "Klebsiella pneumoniae": {"tested_on": "Klebsiella pneumoniae"}, "Micrococcus luteus": {"tested_on": "Micrococcus luteus"}, "[29]": {"tested_on": "Staphylococcus aureus LT1338"}, "Pseudomonas aeruginosa": {"tested_on": "Pseudomonas aeruginosa"}, "Streptococcus agalactiae": {"tested_on": "Streptococcus agalactiae"}, "[30]": {"tested_on": "Escherichia coli O18:K1:H7 Bort"}, "Serratia marcescens": {"tested_on": "Serratia marcescens"}}, "note": "Where “and” joins values, the source holds several entries; their conditions need not be identical. Equal values may be shown once."}
{"smiles": "CC[C@H](C)[C@H](NC(=O)[C@H](Cc1ccccc1)NC(=O)[C@H](Cc1cnc[nH]1)NC(=O)[C@H](CCCCN)NC(=O)[C@@H](NC(=O)[C@H](Cc1ccccc1)NC(=O)[C@@H]1CCCN1C(=O)[C@H](CO)NC(=O)[C@@H]1CCCN1C(=O)[C@H](CO)NC(=O)[C@@H]1CCCN1C(=O)[C@H](Cc1ccccc1)NC(=O)[C@H](Cc1cnc[nH]1)NC(=O)[C@H](CC(C)C)NC(=O)[C@H](Cc1cnc[nH]1)NC(=O)[C@H](Cc1ccccc1)NC(=O)[C@H](Cc1cnc[nH]1)NC(=O)[C@@H](N)Cc1ccccc1)[C@@H](C)CC)C(=O)N[C@@H](Cc1cnc[nH]1)C(=O)N[C@@H](CCCN=C(N)N)C(=O)N[C@@H](Cc1ccccc1)C(N)=O", "note": "[FHFHLHFPSPSPFIKHFIHRF]", "values": [{"measurement": "MIC", "setting": "Enterococcus faecalis", "value": "≥ 93.4", "unit": "µM"}, {"measurement": "MIC", "setting": "Staphylococcus aureus", "value": "> 187", "unit": "µM"}, {"measurement": "MIC", "setting": "[1]", "value": "≥ 46.7", "unit": "µM"}, {"measurement": "MIC", "setting": "Escherichia coli W3110", "value": 23.4, "unit": "µM"}, {"measurement": "MIC", "setting": "[2]", "value": "≥ 46.7", "unit": "µM"}, {"measurement": "MIC", "setting": "[3]", "value": 12, "unit": "µM"}, {"measurement": "MIC", "setting": "[4]", "value": "≥ 46.7", "unit": "µM"}]}
{"smiles": "CC[C@H](C)[C@H](NC(=O)CNC(=O)[C@H](CCCCN)NC(=O)[C@@H](NC(=O)[C@H](CC(C)C)NC(=O)[C@H](CO)NC(=O)CNC(=O)[C@H](CC(C)C)NC(=O)CNC(=O)[C@H](C)NC(=O)[C@H](CCCCN)NC(=O)[C@H](Cc1ccccc1)NC(=O)[C@@H](NC(=O)[C@H](CCC(=O)O)NC(=O)[C@H](CCCCN)NC(=O)[C@H](CC(C)C)NC(=O)CN)[C@@H](C)CC)C(C)C)C(=O)N[C@@H](C)C(=O)N[C@@H](C)C(=O)N[C@@H](Cc1cnc[nH]1)C(=O)N[C@H](C(=O)N[C@@H](C)C(=O)N[C@@H](CO)C(=O)O)C(C)C", "note": "[GLKEIFKAGLGSLVKGIAAHVAS]", "values": [{"measurement": "MIC", "setting": "[5]", "value": 15.2, "unit": "µM"}, {"measurement": "MIC", "setting": "[6]", "value": "> 250", "unit": "µM"}, {"measurement": "MIC", "setting": "[7]", "value": "> 250", "unit": "µM"}, {"measurement": "MIC", "setting": "[8]", "value": "≥ 250", "unit": "µM"}, {"measurement": "MIC", "setting": "[9]", "value": "≥ 125", "unit": "µM"}, {"measurement": "MIC", "setting": "[10]", "value": 62.5, "unit": "µM"}, {"measurement": "MIC", "setting": "[11]", "value": 31.3, "unit": "µM"}, {"measurement": "MIC", "setting": "[12]", "value": 250, "unit": "µM"}]}
{"smiles": "CC[C@H](C)[C@H](NC(=O)[C@H](CCCCN)NC(=O)[C@H](CC(C)C)NC(=O)[C@H](CC(C)C)NC(=O)[C@@H]1CCCN1C(=O)[C@H](CCCCN)NC(=O)[C@H](CC(C)C)NC(=O)[C@H](CC(C)C)NC(=O)CN)C(=O)N[C@@H](C)C(=O)N[C@@H](C)C(=O)N[C@@H](CCCCN)C(=O)N[C@H](C(=O)NCC(=O)N[C@@H](CO)C(=O)N[C@@H](CC(N)=O)C(=O)N[C@@H](CC(C)C)C(=O)N[C@@H](CC(C)C)C(N)=O)C(C)C", "note": "[GLLKPLLKIAAKVGSNLL]", "values": [{"measurement": "MIC", "setting": "[13]", "value": 6, "unit": "µM"}, {"measurement": "MIC", "setting": "[14]", "value": 6, "unit": "µM"}, {"measurement": "MIC", "setting": "[15]", "value": 25, "unit": "µM"}, {"measurement": "MIC", "setting": "[16]", "value": 12.5, "unit": "µM"}, {"measurement": "MIC", "setting": "[17]", "value": 6, "unit": "µM"}, {"measurement": "MIC", "setting": "[18]", "value": 25, "unit": "µM"}, {"measurement": "MIC", "setting": "[19]", "value": 12.5, "unit": "µM"}, {"measurement": "MIC", "setting": "[20]", "value": 12.5, "unit": "µM"}, {"measurement": "MIC", "setting": "Acinetobacter baumannii", "value": 2.23, "unit": "µM"}, {"measurement": "MIC", "setting": "[21]", "value": 3, "unit": "µM"}, {"measurement": "MIC", "setting": "[22]", "value": 25, "unit": "µM"}, {"measurement": "MIC", "setting": "[12]", "value": 6, "unit": "µM"}]}
{"smiles": "CC[C@H](C)[C@H](NC(=O)[C@@H](NC(=O)[C@H](CCCN=C(N)N)NC(=O)[C@H](C)NC(=O)[C@H](CC(C)C)NC(=O)[C@H](CCCCN)NC(=O)[C@H](CCCN=C(N)N)NC(=O)[C@H](C)NC(=O)[C@H](CC(C)C)NC(=O)[C@H](CCCN=C(N)N)NC(=O)CNC(=O)[C@H](Cc1ccccc1)NC(=O)[C@H](CCCCN)NC(=O)[C@H](CO)NC(=O)[C@H](CC(C)C)NC(=O)[C@H](CC(C)C)NC(=O)CN)C(C)C)C(=O)N1CCC[C@H]1C(=O)N[C@@H](CCCCN)C(=O)N[C@H](C(N)=O)C(C)C", "note": "[GLLSKFGRLARKLARVIPKV]", "values": [{"measurement": "MIC", "setting": "Enterococcus faecium", "value": 1.41, "unit": "µM"}, {"measurement": "MIC", "setting": "[23]", "value": 1.5, "unit": "µM"}, {"measurement": "MIC", "setting": "Escherichia coli ML-35", "value": 1, "unit": "µM"}, {"measurement": "MIC", "setting": "Citrobacter freundii", "value": 2, "unit": "µM"}, {"measurement": "MIC", "setting": "[24]", "value": 1.22, "unit": "µM"}, {"measurement": "MIC", "setting": "[25]", "value": 1.5, "unit": "µM"}, {"measurement": "MIC", "setting": "Escherichia coli", "value": 1.41, "unit": "µM"}, {"measurement": "MIC", "setting": "Bacillus megaterium Bm11", "value": 2, "unit": "µM"}, {"measurement": "MIC", "setting": "[26]", "value": 4, "unit": "µM"}, {"measurement": "MIC", "setting": "[10]", "value": 5.66, "unit": "µM"}, {"measurement": "MIC", "setting": "Staphylococcus aureus", "value": "2 µM and 2.45 µM"}, {"measurement": "MIC", "setting": "[27]", "value": 5.66, "unit": "µM"}, {"measurement": "MIC", "setting": "Candida albicans", "value": "> 4", "unit": "µM"}, {"measurement": "MIC", "setting": "[28]", "value": 3, "unit": "µM"}, {"measurement": "MIC", "setting": "Klebsiella pneumoniae", "value": 1, "unit": "µM"}, {"measurement": "MIC", "setting": "Micrococcus luteus", "value": 1, "unit": "µM"}, {"measurement": "MIC", "setting": "[29]", "value": 4, "unit": "µM"}, {"measurement": "MIC", "setting": "Pseudomonas aeruginosa", "value": 2, "unit": "µM"}]}
{"smiles": "CC[C@H](C)[C@H](N)C(=O)N[C@@H](CC(C)C)C(=O)N[C@@H](CCCN=C(N)N)C(=O)N[C@@H](C)C(=O)N[C@@H](Cc1c[nH]c2ccccc12)C(=O)N[C@@H](CCCCN)C(=O)N[C@@H](CCCCN)C(=O)N[C@@H](Cc1ccc(O)cc1)C(=O)NCC(=O)N1CCC[C@H]1C(=O)N[C@H](C(=O)N[C@H](C(=O)N[C@H](C(=O)N1CCC[C@H]1C(=O)N[C@H](C(=O)N[C@H](C(=O)N[C@@H](CCCN=C(N)N)C(=O)N[C@H](C(N)=O)[C@@H](C)CC)[C@@H](C)CC)[C@@H](C)CC)C(C)C)[C@@H](C)CC)[C@@H](C)CC", "note": "[ILRAWKKYGPIIVPIIRI]", "values": [{"measurement": "MIC", "setting": "Streptococcus agalactiae", "value": 4, "unit": "µM"}, {"measurement": "MIC", "setting": "Enterococcus faecium", "value": 8, "unit": "µM"}, {"measurement": "MIC", "setting": "[30]", "value": 2, "unit": "µM"}, {"measurement": "MIC", "setting": "[26]", "value": 8, "unit": "µM"}, {"measurement": "MIC", "setting": "Staphylococcus aureus", "value": 8, "unit": "µM"}, {"measurement": "MIC", "setting": "Serratia marcescens", "value": 16, "unit": "µM"}]}
